Converted amounts (≈) assume the structure as drawn.
Tests used:
Salmonella typhi [1] = experiment: Antimicrobial activity against Salmonella enterica serovar Typhi isolate 080049Ty by broth microdilution method; format: functional, Salmonella enterica subsp. enterica serovar Typhi
Salmonella typhi [2] = experiment: Antimicrobial activity against Salmonella enterica serovar Typhi isolate 080048Ty transconjugant harboring bla CTX-M-15 gene by broth microdilution method; format: functional, Salmonella enterica subsp. enterica serovar Typhi
Escherichia coli [3] = experiment: Antimicrobial activity against Escherichia coli W3110 transformant harboring bla CTX-M-15 gene by broth microdilution method; format: functional
Salmonella typhi [4] = experiment: Antimicrobial activity against Salmonella enterica serovar Typhi isolate 080048Ty by broth microdilution method; format: functional, Salmonella enterica subsp. enterica serovar Typhi
Salmonella typhi [5] = experiment: Antimicrobial activity against Salmonella enterica serovar Typhi isolate 080048Ty transconjugant harboring bla CTX-M-15 gene by broth microdilution method in presence of beta-lactamase inhibitor clavulanic acid; format: functional, Salmonella enterica subsp. enterica serovar Typhi
Salmonella typhi [6] = experiment: Antimicrobial activity against Salmonella enterica serovar Typhi isolate 080048Ty by broth microdilution method in presence of beta-lactamase inhibitor clavulanic acid; format: functional, Salmonella enterica subsp. enterica serovar Typhi
Escherichia coli [7] = experiment: Antimicrobial activity against Escherichia coli W3110 transformant harboring bla CTX-M-15 gene by broth microdilution method in presence of beta-lactamase inhibitor clavulanic acid; format: functional
Salmonella typhi [8] = experiment: Antimicrobial activity against Salmonella enterica serovar Typhi isolate 080049Ty by broth microdilution method in presence of beta-lactamase inhibitor clavulanic acid; format: functional, Salmonella enterica subsp. enterica serovar Typhi

| Structure (SMILES) | MIC (Salmonella typhi [1]) [µg/mL] | MIC (Salmonella typhi [2]) [µg/mL] | MIC (Escherichia coli [3]) [µg/mL] | MIC (Salmonella typhi [4]) [µg/mL] | MIC (Salmonella typhi [5]) [µg/mL] | MIC (Salmonella typhi [6]) [µg/mL] | MIC (Escherichia coli [7]) [µg/mL] | MIC (Salmonella typhi [8]) [µg/mL] |
| --- | --- | --- | --- | --- | --- | --- | --- | --- |
| CC1(C)S[C@@H]2[C@H](NC(=O)[C@H](N)c3ccccc3)C(=O)N2[C@H]1C(=O)O [AMPICILLIN] | > 64 | > 64 | > 64 | < 2 |  |  |  |  |
| CO/N=C(\C(=O)N[C@@H]1C(=O)N2C(C(=O)O)=C(COC(C)=O)CS[C@H]12)c1csc(N)n1 [CEFOTAXIME] | > 128 | > 128 | > 128 | 0.125 (≈ 0.274 µM) | < 0.125 | < 0.125 | < 0.125 | < 0.125 |
| CC(C)(O/N=C(\C(=O)N[C@@H]1C(=O)N2C(C(=O)[O-])=C(C[n+]3ccccc3)CS[C@H]12)c1csc(N)n1)C(=O)O [CEFTAZIDIME] | 64 (≈ 117 µM) | 64 (≈ 117 µM) | 64 (≈ 117 µM) | 1 (≈ 1.83 µM) | 0.25 | 0.25 | 0.25 | 0.25 |
| CO/N=C(\C(=O)N[C@@H]1C(=O)N2C(C(=O)O)=C(CSc3nc(=O)c(O)nn3C)CS[C@H]12)c1csc(N)n1 [CEFTRIAXONE] | > 128 | > 128 | > 128 | 0.125 (≈ 0.225 µM) |  |  |  |  |
| CCn1cc(C(=O)O)c(=O)c2ccc(C)nc21 [NALIDIXIC ACID] | > 64 | > 64 | 32 (≈ 138 µM) | > 64 |  |  |  |  |
